Results as given in paper PMC7714071, “Interaction of amyloid beta with humanin and acetylcholinesterase is modulated by ATP” (FEBS Open Bio, 2020).

Legend:
[1] = tested on: A549 cells; settings: cited from earlier work
Procedure: Since addition of ATP appears to increase binding of HN to Aβ, and conversely, decreases the interaction of Aβ with AChE (Figs 3, 4, 5, 6), we tested the effect of added ATP on A549 and H1299 cell viability (Fig. 7). Exogenously added ATP at either 100 µM or 1 mM had no effect on viability of either A549 (Fig. 7A) or H1299 cells (Fig. 7B).

[2] = tested on: Aβ in H1299 cell-conditioned media; test: ELISA, oligomer versus total Aβ in H1299 cell-conditioned media; format: cell-based, human; settings: Fig. 8B
Procedure: Aβ ELISAs were carried out according to previous protocols for determining the oligomeric and monomeric concentrations of Aβ and as we recently reported. Briefly, total Aβ (monomers + oligomers) was measured by two‐site binding ELISAs using the capture 6E10 monoclonal antibody and 4G8‐conjugated biotin as the detection antibody, which recognizes a distinct epitope, then quantitated using streptavidin‐HRP.
Using the same samples, oligomerized Aβ was measured by a single‐site ELISA in which antibodies targeting the same primary sequence epitope were used for both capture (4G8) and detection (4G8‐biotin). Only oligomers are detected with this approach since the 4G8‐biotin antibody cannot bind to the captured monomer because the epitope is blocked by the 4G8 capture antibody. Therefore, only oligomeric or multimeric Aβ containing additional exposed 4G8 epitopes, not engaged by the capture antibody, are reported by the streptavidin–HRP. The amount of the monomer was then estimated as the difference between the concentration of total Aβ and the concentration of the oligomer.
Conditioned media were immunodepleted (ID) according to the methods previously described and our recently published report. Briefly, specific antibodies were bound to ELISA wells overnight (1 : 1000 dilution). The wells were then blocked and washed, then 300 μL of the conditioned medium (0.5 μg·μL^−1) treated as indicated, 72 h postserum starvation, was incubated with the antibodies bound to ELISA wells for 24 h. The ID media were then carefully removed and analyzed for the presence of the target protein or peptide by ELISA. The same amount of protein (3 µL of 600 µg·mL^−1 total protein) of each sample was analyzed in the experiments. Significant depletion (95–100%) was observed upon using each of the antibodies employed in this study.
Both epitopes recognized by the 6E10 and 4G8 antibodies have been previously shown to be exposed in Aβ aggregates. […] To determine the effect of ID of AChE or HN on this ratio in the absence or presence of added ATP, 0.2 × 10^5 cells per well were seeded in 96‐well plates in 10% FBS‐supplemented media. The next day, the cells were incubated in serum‐free medium for 72 h, then ID of AChE or HN as described in Materials and methods. The antibodies 6E10 or 4G8 were bound (1 : 1000 dilution) to ELISA wells (Fig. 8). The wells were blocked, and then incubated with 300 μL of the ID medium (0.5 μg·μL^−1). Biotin‐4G8 was then added and the signal processed as described in Materials and methods section. Fold change relative to controls using anti‐6E10 or anti‐4G8 antibodies incubated with 300 μL of the medium not incubated with cells was calculated.
Cells (0.2 × 10^5) were grown in 10% FBS‐supplemented media for 24 h. The cells were then incubated in serum‐free medium for 72 h without or with ATP and the media collected and ID from either HN or AChE as described in Materials and methods section. The antibodies 6E10 or 4G8 were bound (1 : 1000 dilution) to ELISA wells. The wells were blocked, and then incubated with 300 μL of the control and ID medium (0.5 μg·μL^−1). Biotin‐4G8 was then added and the signal processed as described in Materials and methods section. Fold change relative to controls using anti‐6E10 and anti‐4G8 antibodies and 300 μL of the medium not incubated with cells was calculated. Data were processed using the […] 8.4.3 software. The graphs summarize the results expressed as means ± SD of three separate experiments, each performed in triplicate. […]

[3] = tested on: Aβ40; settings: cited from earlier work
Description: Almost all types of cells produce amyloid beta (Aβ), a peptide well recognized for its role in the development and progression of different stages of Alzheimer's disease (AD). The Aβ peptide is ~ 4 kDa and derived from the sequential processing of the higher molecular weight amyloid precursor protein by two membrane‐bound endoproteases, β‐ and γ‐secretase. Different C‐terminal Aβ heterogeneity results from processing by γ‐secretase, where Aβ40 represents the most abundant isoform (~ 90%) as compared to Aβ42 (~ 10%). Self‐assembled Aβ40/42 peptides into amyloid fib ... || Humanin (HN) is a secreted 21‐ to 24‐amino acid mitochondrial‐derived peptide. Certain amino acid residues in HN have been identified to be involved in different functions, including binding to Aβ [55, 56]. […] HN was identified previously as a binding partner of Aβ, likely modulating its aggregation pathways and counteracting its deleterious effects. […] The specific epitopes at the binding interface between HN and Aβ40 were identified, by proteolytic epitope excision and extraction in addition to affinity–mass spectrometric data analysis, to be HN (5–15) and Aβ (17–28). […] Inhibiting the 17–28 region of Aβ reduced aggregation of the neurotoxic amyloid fibrils and related cytotoxicity in SH‐SY5Y, a human neuroblastoma cell ... || (+ 1 further places)

Nc1ncnc2c1ncn2[C@@H]1O[C@H](COP(=O)(O)OP(=O)(O)OP(=O)(O)O)[C@@H](O)[C@H]1O [ATP, Adenosine triphosphate]
effect of ATP on A549 cell viability ([1]; 100 μM or 1 mM ATP): no effect
effect of ATP on relative amount of oligomer versus total Aβ ([2]; HN-immunodepleted H1299 media, three experiments in triplicate): does not affect
effect of ATP on relative amount of oligomer versus total Aβ ([2]; non-depleted, HN-ID or AChE-ID media): lack of effect

Humanin [HN]
cell viability upon ID of HN ([1]; HN immunodepleted from A549 conditioned media): diminished cell viability
apoptosis upon ID of HN ([1]; HN-ID A549 media): increased apoptosis
morphology of Aβ40 [3]: from fibrillary to amorphous
oligomer, % of total Aβ remaining after HN ID ([2]; HN-immunodepleted H1299 media (non-depleted ~ 48%)): ~ 69%
total Aβ remaining after HN ID ([2]; HN-immunodepleted H1299 media): ~ 58%
